The values that follow come from patent US8673578B2, “Methods of identifying antagonists of the hTAS2R46 bitter taste receptor” (Deutsches Institut für Ernahrungsforschung Potsdam-Rehbrücke, priority 2009, dated 2014).

Structures are written as SMILES.

Test [1] has as its target T1, hTAS2R7 (Homo sapiens, UniProt Q9NYW3).
T1 construct: expressed in transfected cells; host or cells: HEK293T cells stably expressing chimeric Gα16gust44, transient transfection
T1 sequence (Q9NYW3 1-318): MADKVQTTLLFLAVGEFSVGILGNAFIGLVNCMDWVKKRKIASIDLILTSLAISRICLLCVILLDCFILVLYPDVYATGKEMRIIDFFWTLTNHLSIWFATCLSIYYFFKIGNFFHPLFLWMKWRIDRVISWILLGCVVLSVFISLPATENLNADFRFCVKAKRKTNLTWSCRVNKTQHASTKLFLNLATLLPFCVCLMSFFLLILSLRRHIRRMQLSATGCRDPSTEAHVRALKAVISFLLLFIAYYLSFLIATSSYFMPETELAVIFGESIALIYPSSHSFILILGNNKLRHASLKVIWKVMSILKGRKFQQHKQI
As to the kind of experiment: calcium imaging (FLIPR), effect on agonist-dependent hTAS2R activation. The class given is cell-based. Conditions: 100 μM test substance; agonist quinine sulfate 10 μM; agonist alone = 100%. An excerpt: (§1) Human TAS2R cDNAs were cloned into pcDNA5/FRT (Invitrogen, San Diego, Calif.). For adequate plasma membrane targeting, receptor cDNA was fused to the aminoterminal sequence of the rat somatostatin type 3 receptor at the aminoterminus of the recombinant protein (Bufe, B., T. Hofmann, et al. (2002) Nat Genet. 32(3): 397-401). For immunological detection, the Herpes simplex Glycoprotein D epitope was supplemented at the carboxyterminus of the recombinant protein (Bufe et al., supra). Receptor constructs were transiently transfected into HEK293T cells stably expressing the chimeric G protein subunit Gα16gust44 (Ueda, T., S. Ugawa, et al. (2003) J Neurosci 23(19): 7376-80) using Lipofectamine 2000 (Invitrogen, San Diego, Calif.) in 96-well plates.
(§2) Calcium Imaging experiments were performed 24 h after transfection using a Fluorometric Imaging Plate Reader (FLIPR, Molecular Devices, Munich, Germany) as previously described (Bufe et al., supra). Taste active compounds were ordered from Sigma (Sigma-Aldrich, Taufkirchen, Germany). Absinthin, 3β hydroxy dihydro costunolide and 3β hydroxy pelenolide were kindly provided by Giovanni Appendino (Novara, Italy). Test substances were directly dissolved in C1 buffer (130 mM NaCl, 10 mM Na-Hepes, 10 mM Glucose, 5 mM KCl, 2 mM CaCl2, pH 7.4) or in DMSO, respectively. DMSO stocks were further diluted in C1 buffer not exceeding a final DMSO concentration of 1% on the cells. For the investigation of antagonistic effects, test substances were premixed. Agonists were applied at concentrations corresponding to EC90, except where indicated otherwise (Table 2). Data were collected from 3 independent experiments performed in quadruplicates and processed with SigmaPlot (SPSS, Chicago, Ill.). Fluorescence signals after application of test substances were corrected for and normalized to background fluorescence (ΔF/F═(F−F0)/F0), and baseline noise was subtracted. Calculation of dose-response curves was done by nonlinear regression using the function f(y)=((a−d)/(1+(x/EC50)^nH)+d).
To test 3β hydroxy dihydro costunolide and 3β hydroxy pelenolide for antagonistic or enhancing effects on hTAS2R activation, transfected cells were stimulated with cognate agonist bitter substances at EC90 concentrations (Table 2) without 3β hydroxy dihydro costunolide and 3β hydroxy pelenolide. The cellular responses after application of the agonist alone were set to 100%, responses obtained after coapplication of agonists and 100 μM 3β hydroxy dihydro costunolide or 100 μM 3β hydroxy pelenolide are shown relative to this value (FIG. 4).

Test [2] concerns the target T2, hTAS2R10 (Homo sapiens, UniProt Q9NYW0).
T2 construct: expressed in transfected cells; host or cells: HEK293T cells stably expressing chimeric Gα16gust44, transient transfection
T2 sequence (Q9NYW0 1-307): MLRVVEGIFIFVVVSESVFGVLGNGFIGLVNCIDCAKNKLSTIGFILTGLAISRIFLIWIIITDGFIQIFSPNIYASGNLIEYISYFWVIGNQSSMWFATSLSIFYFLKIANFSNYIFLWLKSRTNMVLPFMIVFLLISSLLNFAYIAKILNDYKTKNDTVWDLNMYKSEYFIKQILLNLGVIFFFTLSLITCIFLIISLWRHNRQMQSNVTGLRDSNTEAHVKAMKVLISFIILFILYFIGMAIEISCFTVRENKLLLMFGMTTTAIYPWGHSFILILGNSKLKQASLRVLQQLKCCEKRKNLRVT
As to the kind of experiment: calcium imaging (FLIPR), activation of hTAS2R-transfected HEK293T-Gα16gust44 cells. The note with it: for calcium response of hTAS2R10-transfected cells: 100 μM test substance, bath application. The class given is cell-based.
Description: as §1, §2
(§3) In a first series of experiments we tested the two sesquiterpene lactones 3β hydroxy dihydro costunolide (formula (I) in FIG. 1) and 3β hydroxy pelenolide (formula (II) in FIG. 1) for their ability to activate hTAS2 receptor-expressing HEK293T cells.
(§4) Signal amplitudes were comparatively small (FIG. 2C).

The target in test [3] is T3, hTAS2R14 (Homo sapiens, UniProt Q9NYV8).
T3 construct: expressed in transfected cells; host or cells: HEK293T cells stably expressing chimeric Gα16gust44, transient transfection
T3 sequence (Q9NYV8 1-317): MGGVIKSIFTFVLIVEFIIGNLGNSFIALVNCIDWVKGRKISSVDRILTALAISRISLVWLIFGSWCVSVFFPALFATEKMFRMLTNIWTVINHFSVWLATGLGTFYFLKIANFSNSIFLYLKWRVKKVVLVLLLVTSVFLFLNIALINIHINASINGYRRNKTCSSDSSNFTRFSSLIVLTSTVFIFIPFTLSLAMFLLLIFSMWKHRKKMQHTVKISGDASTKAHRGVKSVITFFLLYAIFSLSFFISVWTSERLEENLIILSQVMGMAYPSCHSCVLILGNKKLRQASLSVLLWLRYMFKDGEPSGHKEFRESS
The test is described as above. The class given is cell-based. The note with it: 100 μM test substance, bath application.
Description: as §1, §2, §3, §4

In test [4] the test system is other hTAS2 receptors. The description is as above. The class given is cell-based, human. The note with it: 100 μM test substance, bath application.
Description: as §1
Calcium Imaging experiments were performed 24 h after transfection using a Fluorometric Imaging Plate Reader (FLIPR, Molecular Devices, Munich, Germany) as previously described (Bufe et al., supra). Taste active compounds were ordered from Sigma (Sigma-Aldrich, Taufkirchen, Germany). Absinthin, 3β hydroxy dihydro costunolide and 3β hydroxy pelenolide were kindly provided by Giovanni Appendino (Novara, Italy). […] Fluorescence signals after application of test substances were corrected for and normalized to background fluorescence (ΔF/F═(F−F0)/F0), and baseline noise was subtracted. […]

Test [5] concerns the target T4, hTAS2R46 (Homo sapiens, UniProt P59540).
T4 construct: expressed in transfected cells; host or cells: HEK293T cells stably expressing chimeric Gα16gust44, transient transfection
T4 sequence (P59540 1-309): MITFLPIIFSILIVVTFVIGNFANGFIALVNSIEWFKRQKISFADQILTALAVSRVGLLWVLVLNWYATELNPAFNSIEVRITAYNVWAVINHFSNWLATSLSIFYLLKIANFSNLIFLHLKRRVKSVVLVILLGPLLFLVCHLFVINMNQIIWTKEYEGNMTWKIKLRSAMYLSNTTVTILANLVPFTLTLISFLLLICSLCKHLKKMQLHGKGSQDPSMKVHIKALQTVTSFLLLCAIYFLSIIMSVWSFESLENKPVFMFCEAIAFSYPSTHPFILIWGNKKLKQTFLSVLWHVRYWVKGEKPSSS
The description is as above. The class given is cell-based. The note with it: 100 μM test substance, bath application.
Description: as §1
as §2, with “f(y)=((a−d)/(1+(x/EC50)^nH)+d). […]” for “f(y)=((a−d)/(1+(x/EC50)^nH)+d).”
Finally, the impact of chemical modifications on the antagonistic properties of 3β hydroxy dihydro costunolide on hTAS2R46-expressing cells was studied. Derivatives of 3β hydroxy dihydro costunolide with site-directed modifications at C3 and C11 were generated (FIG. 7A) These derivatives were tested for activation or inhibition of hTAS2R46-expressing cells in the absence or presence of the agonist strychnine (3 μM) and half-maximum effective concentrations (EC50) or half-maximal inhibitory concentrations were calculated (FIG. 7B).

As for `C/C1=C\C[C@H](O)/C(C)=C/[C@H]2OC(=O)[C@@H](C)C2CC1` (stereo partly drawn) [3β hydroxy dihydro costunolide], in test [1], the “agonist-dependent response of hTAS2R7-expressing cells on coapplication” value is “increased responses”. Moreover, the “calcium response of hTAS2R10-transfected cells” value in test [2] is recorded as “responded”. Besides, in test [2] (concentration-response, intracellular calcium), the EC50 (in general, the concentration giving half of the maximal effect) amounted to 25.2 ± 3.6 µM. For the same compound, the “calcium response of hTAS2R14-transfected cells” value in test [3] is reported as “responded”. For the same compound, the “calcium response of cells expressing any of the other TAS2Rs” value in test [4] is given as “did not respond”.
As to `C/C1=C\C[C@H](O)[C@@H](C)C[C@H]2OC(=O)[C@@H](C)[C@@H]2CC1` [3β hydroxy pelenolide], the “calcium response of hTAS2R10-transfected cells” value in test [2] was “displayed calcium signals”. Moreover, the “calcium response of hTAS2R14-transfected cells” value in test [3] is recorded as “displayed calcium signals”. For the same compound, the “calcium response of hTAS2R46-transfected cells” value in test [5] was “displayed calcium signals”.
